IC50 data for one compound are collected here from ChEMBL document CHEMBL4256941, “Histone demethylase inhibitors” (2016).

The target in assay [1] is T1, Lysine-specific demethylase 4C (Homo sapiens, UniProt Q9H3R0).
T1 sequence (Q9H3R0 whole entry): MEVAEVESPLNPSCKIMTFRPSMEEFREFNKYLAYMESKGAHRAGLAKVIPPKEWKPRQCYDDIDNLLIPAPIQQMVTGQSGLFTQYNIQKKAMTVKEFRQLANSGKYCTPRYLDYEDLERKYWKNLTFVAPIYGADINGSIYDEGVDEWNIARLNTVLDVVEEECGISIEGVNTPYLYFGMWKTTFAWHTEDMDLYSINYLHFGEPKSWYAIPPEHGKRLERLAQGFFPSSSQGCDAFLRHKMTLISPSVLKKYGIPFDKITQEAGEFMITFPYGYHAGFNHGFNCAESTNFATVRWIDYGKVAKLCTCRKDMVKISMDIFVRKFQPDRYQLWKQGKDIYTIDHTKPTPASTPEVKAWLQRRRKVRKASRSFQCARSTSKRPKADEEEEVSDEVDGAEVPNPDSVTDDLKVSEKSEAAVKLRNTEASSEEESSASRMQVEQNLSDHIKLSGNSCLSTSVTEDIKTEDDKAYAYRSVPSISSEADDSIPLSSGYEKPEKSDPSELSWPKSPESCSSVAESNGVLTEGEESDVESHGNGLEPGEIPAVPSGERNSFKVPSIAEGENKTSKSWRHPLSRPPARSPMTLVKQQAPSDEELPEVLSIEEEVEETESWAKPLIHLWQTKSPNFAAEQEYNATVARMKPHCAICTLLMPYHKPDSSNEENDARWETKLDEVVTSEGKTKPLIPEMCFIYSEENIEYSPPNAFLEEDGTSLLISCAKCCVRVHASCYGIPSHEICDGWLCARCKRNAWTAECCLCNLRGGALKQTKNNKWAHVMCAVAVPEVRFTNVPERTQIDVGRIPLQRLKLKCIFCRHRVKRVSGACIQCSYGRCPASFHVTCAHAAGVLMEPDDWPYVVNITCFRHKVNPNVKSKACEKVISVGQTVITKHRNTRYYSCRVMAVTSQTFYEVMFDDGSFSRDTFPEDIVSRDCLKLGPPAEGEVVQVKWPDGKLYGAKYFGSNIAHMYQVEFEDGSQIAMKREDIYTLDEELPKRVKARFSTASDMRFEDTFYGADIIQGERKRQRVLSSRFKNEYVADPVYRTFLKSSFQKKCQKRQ
Nature of the assay: Inhibition of recombinant human N-terminal GST-tagged JMJD2C (2 to 372 residues) expressed in baculovirus infected sf9 cells using H3K9me3-biotin peptide as substrate after 30 mins in presence of alpha-ketoglutaric acid by LANCE TR-FRET assay.

Assay [2] has as its target Lysine-specific demethylase 5B (Homo sapiens, UniProt Q9UGL1). As to the kind of experiment: Inhibition of recombinant human N-terminal His-FLAG tagged JARID1B (2 to 751 residues) expressed in baculovirus infected sf9 cells using H3K4me3-biotin peptide as substrate after 30 mins in presence of alpha-ketoglutaric acid by LANCE TR-FRET assay. On the technique in general: Time-resolved FRET reads energy transfer from a long-lived donor to a nearby acceptor.

Assay [3] concerns the target Lysine-specific demethylase 5A (Homo sapiens, UniProt P29375). Nature of the assay: Inhibition of recombinant human C-terminal FLAG-tagged JARID1A (1 to 1090 residues) expressed in baculovirus infected sf9 cells using H3K4me3-biotin peptide as substrate after 30 mins in presence of alpha-ketoglutaric acid by LANCE TR-FRET assay.

Sequence of Lysine-specific demethylase 5A (P29375 whole entry, the tested form may be a part): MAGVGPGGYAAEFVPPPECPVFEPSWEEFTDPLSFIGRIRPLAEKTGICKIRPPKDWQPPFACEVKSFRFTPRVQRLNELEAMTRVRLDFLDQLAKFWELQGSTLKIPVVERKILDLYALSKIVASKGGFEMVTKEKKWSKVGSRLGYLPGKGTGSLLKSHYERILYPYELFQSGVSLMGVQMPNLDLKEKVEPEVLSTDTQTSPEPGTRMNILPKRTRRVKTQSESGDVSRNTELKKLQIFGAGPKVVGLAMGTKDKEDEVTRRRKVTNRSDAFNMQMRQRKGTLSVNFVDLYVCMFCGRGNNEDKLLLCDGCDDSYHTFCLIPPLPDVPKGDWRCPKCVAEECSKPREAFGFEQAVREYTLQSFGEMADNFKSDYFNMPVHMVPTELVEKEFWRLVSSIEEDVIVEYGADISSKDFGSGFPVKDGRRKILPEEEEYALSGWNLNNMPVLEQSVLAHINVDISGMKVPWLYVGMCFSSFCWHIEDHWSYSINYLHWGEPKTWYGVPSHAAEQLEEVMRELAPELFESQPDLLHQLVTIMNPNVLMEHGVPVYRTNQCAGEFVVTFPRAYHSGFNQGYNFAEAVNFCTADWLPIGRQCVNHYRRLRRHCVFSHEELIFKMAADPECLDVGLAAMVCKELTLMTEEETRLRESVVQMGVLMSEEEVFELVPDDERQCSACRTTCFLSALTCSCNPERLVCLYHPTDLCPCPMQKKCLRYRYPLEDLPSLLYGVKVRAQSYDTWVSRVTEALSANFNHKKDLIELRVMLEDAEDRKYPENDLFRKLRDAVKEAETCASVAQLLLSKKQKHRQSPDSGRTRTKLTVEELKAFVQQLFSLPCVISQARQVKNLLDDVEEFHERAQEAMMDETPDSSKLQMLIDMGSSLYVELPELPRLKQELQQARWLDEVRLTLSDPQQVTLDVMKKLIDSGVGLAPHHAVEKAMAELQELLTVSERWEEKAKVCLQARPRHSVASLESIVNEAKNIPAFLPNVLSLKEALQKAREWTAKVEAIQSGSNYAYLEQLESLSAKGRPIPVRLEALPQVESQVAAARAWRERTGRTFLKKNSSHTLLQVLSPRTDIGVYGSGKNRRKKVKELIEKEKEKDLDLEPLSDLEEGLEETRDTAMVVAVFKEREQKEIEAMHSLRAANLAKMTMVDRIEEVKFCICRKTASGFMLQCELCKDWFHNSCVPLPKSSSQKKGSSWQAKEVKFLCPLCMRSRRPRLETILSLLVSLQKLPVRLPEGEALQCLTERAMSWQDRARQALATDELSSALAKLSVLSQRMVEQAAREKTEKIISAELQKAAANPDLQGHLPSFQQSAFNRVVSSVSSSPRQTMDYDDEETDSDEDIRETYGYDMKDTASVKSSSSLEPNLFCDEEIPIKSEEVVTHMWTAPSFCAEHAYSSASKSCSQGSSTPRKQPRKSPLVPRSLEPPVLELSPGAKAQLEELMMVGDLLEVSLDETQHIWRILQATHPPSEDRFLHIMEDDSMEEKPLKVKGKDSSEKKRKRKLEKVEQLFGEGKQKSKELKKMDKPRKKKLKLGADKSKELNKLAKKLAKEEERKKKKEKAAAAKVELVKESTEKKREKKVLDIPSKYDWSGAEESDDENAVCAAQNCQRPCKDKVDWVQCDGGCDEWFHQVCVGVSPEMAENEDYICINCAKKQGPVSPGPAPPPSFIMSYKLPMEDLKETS
Sequence of Lysine-specific demethylase 5B (Q9UGL1 whole entry, the tested form may be a part): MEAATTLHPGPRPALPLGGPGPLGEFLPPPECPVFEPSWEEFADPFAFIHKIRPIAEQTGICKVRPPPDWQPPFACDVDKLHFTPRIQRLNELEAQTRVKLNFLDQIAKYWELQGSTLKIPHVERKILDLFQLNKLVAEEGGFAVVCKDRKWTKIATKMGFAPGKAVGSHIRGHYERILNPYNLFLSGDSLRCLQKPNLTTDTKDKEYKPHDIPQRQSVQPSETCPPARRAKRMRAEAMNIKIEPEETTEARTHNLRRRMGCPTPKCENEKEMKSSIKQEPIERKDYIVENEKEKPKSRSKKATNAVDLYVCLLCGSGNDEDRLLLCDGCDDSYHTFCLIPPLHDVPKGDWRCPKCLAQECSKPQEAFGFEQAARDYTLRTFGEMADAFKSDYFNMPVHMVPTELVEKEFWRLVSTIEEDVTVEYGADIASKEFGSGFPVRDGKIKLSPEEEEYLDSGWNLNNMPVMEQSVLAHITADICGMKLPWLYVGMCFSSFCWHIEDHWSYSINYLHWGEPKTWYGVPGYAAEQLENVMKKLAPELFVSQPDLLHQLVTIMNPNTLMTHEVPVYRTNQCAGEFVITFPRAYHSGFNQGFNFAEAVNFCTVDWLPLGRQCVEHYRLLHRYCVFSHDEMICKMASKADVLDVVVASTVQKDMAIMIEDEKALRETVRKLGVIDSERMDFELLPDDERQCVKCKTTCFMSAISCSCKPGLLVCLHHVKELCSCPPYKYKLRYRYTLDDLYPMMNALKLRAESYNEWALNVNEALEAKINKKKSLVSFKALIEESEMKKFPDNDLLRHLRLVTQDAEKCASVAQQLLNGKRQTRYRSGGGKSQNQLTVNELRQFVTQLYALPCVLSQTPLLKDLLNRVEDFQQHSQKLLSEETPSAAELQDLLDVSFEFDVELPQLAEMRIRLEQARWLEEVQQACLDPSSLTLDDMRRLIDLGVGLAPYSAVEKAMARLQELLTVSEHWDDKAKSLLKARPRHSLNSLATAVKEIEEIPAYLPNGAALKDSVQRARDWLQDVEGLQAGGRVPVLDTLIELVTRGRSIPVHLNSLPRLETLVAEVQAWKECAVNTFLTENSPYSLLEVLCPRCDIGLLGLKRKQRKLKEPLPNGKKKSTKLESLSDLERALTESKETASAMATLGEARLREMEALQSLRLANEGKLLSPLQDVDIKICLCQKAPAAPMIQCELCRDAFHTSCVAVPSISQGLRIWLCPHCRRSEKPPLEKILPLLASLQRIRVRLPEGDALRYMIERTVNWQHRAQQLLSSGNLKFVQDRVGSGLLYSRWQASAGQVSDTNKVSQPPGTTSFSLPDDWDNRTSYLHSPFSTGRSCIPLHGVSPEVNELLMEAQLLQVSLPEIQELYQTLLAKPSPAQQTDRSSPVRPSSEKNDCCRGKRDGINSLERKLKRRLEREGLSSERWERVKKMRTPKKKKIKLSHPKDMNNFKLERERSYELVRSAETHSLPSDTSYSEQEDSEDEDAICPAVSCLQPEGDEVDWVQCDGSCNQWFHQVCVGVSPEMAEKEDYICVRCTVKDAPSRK

Broadly, the IC50 is the midpoint of a concentration-inhibition curve. As for `O=C(O)c1ccnc(-n2nccc2OCc2ccc(F)c(OCc3ccc(F)cc3)c2)c1`, the IC50 in assay [1] is 100 to 1000 nM; in assay [2], at most 100 nM; in assay [3] it was at most 100 nM.
